Where only a bound is given, the exact number is not on record here.

The test system of the assay is THP-1 viability, CellTiter-Glo luminescence, 72 h. Description: PubChem AID 2252.
As for `c1ccc(CN2CCC(Nc3nc(-c4cccs4)nc4ccccc34)CC2)cc1`, the EC50 was 8.03 µM.

Consider `CC1CCC(C(C)C)C(OC(=O)Cn2c(-c3ccc(Br)cc3)[n+](C)c3ccccc32)C1` (configuration not stated), for which the EC50 is 2.16 µM.

`Cc1ccc(C)c(NC(=O)CCC(=O)N/N=C/c2cc([N+](=O)[O-])ccc2O)c1`: the EC50 was 17.9 µM.

For `C#CCOCCOCCOCCNc1nc(N2CCN(C(=O)CCCCCCCCCCNC(=O)[C@H](CCCCN)n3cc(C)nn3)CC2)nc(N2CCN(C(=O)CCCCCCCCCCNC(=O)[C@H](CO)n3cc(CCCSC)nn3)CC2)n1`, the 50% effective concentration (EC50) is 10.4 µM.

As for `Cc1c(Cl)cccc1Nc1nc(NCCO)c2ccccc2n1`, the EC50 was 10.1 µM.

In the case of `COC(=O)C1C(O)C(C)C(O)C(C)(O)/C=C\C=C(/C)C(=O)Nc2c(C)c(OC(C)=O)c3c(c2O)C(=O)C(C)=C2OCOC(=C23)/C(C)=C/C(C)(O)C(O)C(C)C1O` (configuration not stated), the half-maximal effective concentration (EC50) was less than 0.1 µM.

Turning to `C#CCOCCOCCOCCNc1nc(N2CCN(C(=O)CCCCCCCCCCNC(=O)[C@H]([C@@H](C)CC)n3cc(CCCCCN)nn3)CC2)nc(N2CCN(C(=O)CCCCCCCCCCNC(=O)[C@H]([C@@H](C)CC)n3cc(CCCCN=C(N)N)nn3)CC2)n1`, the EC50 is 5.17 µM.

With `COc1ccc(C2NCCc3c2[nH]c2ccccc32)cc1COc1ccc(F)cc1` (configuration not stated), the EC50 was 6.94 µM.

With `CCCCCCCCCCOC(=O)Cn1c(COc2ccc(Cl)cc2)[n+](C)c2ccccc21`, the concentration for a half-maximal effect (EC50) was 1.92 µM.

Turning to `Cc1nc2ccccc2nc1N/N=C/c1ccc(O)cc1O`, the 50% effective concentration (EC50) was 3.62 µM.

In the case of `CN(C)CCCNc1cc(C(C)(C)C)nc2c(-c3ccccc3)cnn12`, the EC50 is 6.48 µM.

As to `O=C1CN(/N=C/c2ccc([N+](=O)[O-])o2)C(=O)N1`, the half-maximal effective concentration (EC50) was 47.3 µM.

In the case of `Nc1nonc1-n1nnc(C(=O)N/N=C/c2ccccc2O)c1CN1CCCC1`, the EC50 was 8.87 µM.

Consider `COc1ccccc1Nc1nc(Cl)c(C=O)s1`, for which the EC50 was 21.1 µM.

As for `Oc1ccc(Cl)cc1Cc1cc(Cl)ccc1O`, the EC50 is 19.5 µM.

Turning to `CC1CC(C)CN(CCOc2ccc(Cl)cc2Cl)C1` (configuration not stated), the EC50 is 29.4 µM.

For the compound `COc1cccc(-c2nnc(NC(=O)c3ccc(Cl)s3)o2)c1`, the EC50 was 15 µM.

Turning to `CS(=O)(=O)c1ccc([C@@H](O)[C@@H](CF)NC(=O)C(Cl)Cl)cc1`, the EC50 was less than 0.1 µM.

Take `c1cc2c(cc1C1CCCCC1)c1c3n2CCCNC3CCC1` (configuration not stated): the 50% effective concentration (EC50) was 5.18 µM.

As to `O=C(Cn1nc(CNc2ccc(Br)cc2)[n+]2c1CCCCC2)c1ccc([N+](=O)[O-])cc1`, the concentration giving a half-maximal response (EC50) was 27.3 µM.

For the compound `CCCCCCCCCCCCCCCC[N+](C)(C)C`, the EC50 is 1.43 µM.

Turning to `Cc1[nH]c2ccccc2c1/C=N/Nc1nc2ccccc2[nH]1`, the half-maximal effective concentration (EC50) is 1.52 µM.

With `Cc1ccc(NC2=C(Cl)C(=O)OC2OC(=O)c2ccco2)c(C)c1` (configuration not stated), the EC50 is 27.9 µM.

For the compound `CC(C)(C)c1ccc(OCCNC(=S)Nc2ccccc2)cc1`, the EC50 was 16 µM.

Take `Oc1ccc(C=Nc2cccc3ncccc23)c(O)c1`: the EC50 is 3.33 µM.

With `Nc1cc2c3c(cccc3c1)C(=O)N(CCN1CCCC1)C2=O`, the concentration giving a half-maximal response (EC50) was 11.3 µM.

As for `Cc1ccc(C(=O)NNC(=S)NC(=O)c2ccccc2)cc1`, the EC50 is 8.09 µM.

As to `C#CCOCCOCCOCCNc1nc(N2CCN(C(=O)CCCCCCCCCCNC(=O)[C@H]([C@@H](C)CC)n3cc(CCCCN=C(N)N)nn3)CC2)nc(N2CCN(C(=O)CCCCCCCCCCNC(=O)[C@H](CO)n3cc(CCCCCN)nn3)CC2)n1`, the concentration giving a half-maximal response (EC50) is 7.5 µM.

Regarding `Cc1ccc(-c2nc(C(=O)NCCCN(C)C)cc3c2[nH]c2ccccc23)cc1`, the concentration for a half-maximal effect (EC50) was 10.7 µM.

For the compound `Cc1cc(N2CCC(C)CC2)nc2cccc(O)c12`, the EC50 is 26.4 µM.

With `CCCCCOc1ccc(CSC(=N)N)cc1[N+](=O)[O-]`, the concentration for a half-maximal effect (EC50) was 14 µM.

Regarding `CCn1nccc1C(=O)Nc1cc(Cl)cc(Cl)c1`, the half-maximal effective concentration (EC50) is 37 µM.

In the case of `O=c1ccc2cc3c([nH]c4ccc(Br)cc43)oc-2c1O`, the EC50 was 18.9 µM.

Consider `COc1ccc(CSCCN)cc1Cl`, for which the EC50 was 44.9 µM.

As for `C(=N\Nc1nc2ccccc2[nH]1)/c1ccc2ncccc2c1`, the concentration for a half-maximal effect (EC50) is 15.6 µM.

`CN(C)CCCn1c(SCC(=O)N2c3ccccc3Sc3ccccc32)nc2ccccc2c1=O`: the EC50 is 14.2 µM.

As for `O=C1c2ccccc2C(=O)N1CCCP(=O)(O)CCc1ccccc1`, the EC50 was less than 0.1 µM.

Consider `OC(CNCCc1ccc(Cl)cc1Cl)COc1ccccc1` (configuration not stated), for which the 50% effective concentration (EC50) is 29.2 µM.

`OCCN1CCN(C2Cc3cc(Cl)ccc3Sc3ccc(Cl)cc32)CC1` (configuration not stated) (tested in a mixture with another compound): the concentration for a half-maximal effect (EC50) is 7.79 µM.

On to `N#C/C(N=Nc1ccccc1O)=N\Nc1ccccc1O`, for which the EC50 is 4.42 µM.

Consider `CCC(C)(c1ccc(C(=O)OC)s1)c1ccc(C(=O)OC)s1`, for which the EC50 is 49.7 µM.

In the case of `CCCCCCCCCCOC(=O)Cn1c(COc2ccccc2OC)[n+](C)c2ccccc21`, the EC50 was 1.64 µM.

For the compound `CN1CCN(c2ccc(NC(=O)CSc3ccccc3)cc2F)CC1`, the EC50 is less than 0.1 µM.

On to `CN(C)c1ccc2nc3ccc(=[N+](C)C)cc-3sc2c1`, for which the concentration giving a half-maximal response (EC50) is 0.72 µM.

Turning to `CCCN(C(=O)CSc1nc2ccccc2n1CC)C1CCS(=O)(=O)C1` (configuration not stated), the concentration for a half-maximal effect (EC50) was 14.8 µM.

For the compound `COC(=O)c1ccc(Cn2c(O)c(N=NC(N)=S)c3ccccc32)o1`, the EC50 was 12.7 µM.

`CCC(C)(C)c1ccc(OCCCC[n+]2ccccc2)c(C(C)(C)CC)c1`: the EC50 is 0.97 µM.

Values taken from PubChem BioAssay AID2252 (Southern Research Specialized Biocontainment Screening …, 2010).
